Laboratory results published in US20240115711A1, “Novel Bifunctional Molecules For Targeted Protein Degradation” (Amphista Therapeutics Limited, priority 2020, published 2024).

Target: T1, mutant EGFR (L858R) (Homo sapiens, UniProt P00533, L858R/T790M)
T1 construct: endogenous in cells; host or cells: NCI-H1975
Assay: Assay 8 - Degradation of mutant EGFR by immunoblot (NCI-H1975 cells)
Format: cell-based
Details: after 24 h treatment with 1000 nM
Experimental: 1.8 Assay 8—Degradation of Mutant EGFR by Immunoblot.
NCI-H1975 (1.5×10^5) cells were seeded in 12-well plates (1 mL medium) overnight prior to 24 h treatment with test compounds at the desired concentration (DMSO final concentration 0.1%). After 24 h incubation, cells were washed with PBS and lysed with RIPA buffer (Sigma) supplemented with 1× protease inhibitor cocktail (Roche) and 1 U/mL Benzonase (Merck). Lysates were clarified by centrifugation (17,000×g, 20 min, 4° C.) and the total protein content of the supernatant was quantified using a BCA assay. Samples were prepared using equal amounts of total protein and LDS sample buffer (Invitrogen). […] Blots were visualised using a Bio-Rad ChemiDoc MP Imaging System, and band quantification was performed using Image Studio software (LiCor). […] Degradation data was plotted and analysed using Prism (Graphpad, version 8).
The degradation of target protein mutant EGFR (L858R) was detected according to the procedure outlined in assay 8 for the compound A67.

T1 sequence (P00533 25-1210 T790M/L858R): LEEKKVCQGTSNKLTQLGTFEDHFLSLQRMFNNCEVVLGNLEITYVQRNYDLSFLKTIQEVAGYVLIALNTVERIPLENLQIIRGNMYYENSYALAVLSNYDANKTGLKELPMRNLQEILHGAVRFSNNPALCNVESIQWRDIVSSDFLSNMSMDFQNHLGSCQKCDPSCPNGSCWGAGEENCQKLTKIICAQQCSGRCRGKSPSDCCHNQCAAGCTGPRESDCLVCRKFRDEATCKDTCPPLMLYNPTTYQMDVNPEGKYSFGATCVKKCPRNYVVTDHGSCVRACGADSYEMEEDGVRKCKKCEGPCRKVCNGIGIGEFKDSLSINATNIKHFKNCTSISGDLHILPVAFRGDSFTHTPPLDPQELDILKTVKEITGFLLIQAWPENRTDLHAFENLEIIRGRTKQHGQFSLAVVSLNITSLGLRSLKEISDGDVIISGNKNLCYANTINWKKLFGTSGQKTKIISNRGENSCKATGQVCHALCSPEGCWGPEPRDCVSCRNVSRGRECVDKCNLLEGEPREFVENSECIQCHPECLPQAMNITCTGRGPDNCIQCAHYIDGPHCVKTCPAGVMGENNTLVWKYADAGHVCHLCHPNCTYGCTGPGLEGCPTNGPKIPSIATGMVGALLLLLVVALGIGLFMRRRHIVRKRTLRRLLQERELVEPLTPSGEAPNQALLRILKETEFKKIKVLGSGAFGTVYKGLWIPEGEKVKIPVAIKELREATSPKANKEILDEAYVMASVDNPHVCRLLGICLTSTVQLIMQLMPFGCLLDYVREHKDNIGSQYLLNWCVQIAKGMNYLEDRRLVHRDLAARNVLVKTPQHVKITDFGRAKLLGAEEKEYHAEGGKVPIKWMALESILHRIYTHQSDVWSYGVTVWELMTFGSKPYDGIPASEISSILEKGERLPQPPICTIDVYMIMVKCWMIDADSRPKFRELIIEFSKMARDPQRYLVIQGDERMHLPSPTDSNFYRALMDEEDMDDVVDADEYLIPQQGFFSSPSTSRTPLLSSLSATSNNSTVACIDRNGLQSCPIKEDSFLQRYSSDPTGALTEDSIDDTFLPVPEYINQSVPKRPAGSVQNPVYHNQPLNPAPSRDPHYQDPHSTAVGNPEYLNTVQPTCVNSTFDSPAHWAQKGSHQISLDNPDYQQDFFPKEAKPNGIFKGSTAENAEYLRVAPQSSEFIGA

Compound: CCCC(c1ccc(CCC(=O)NCCCN2CCN(CCCNC(=O)c3nn(C(C)C)c4cc(Nc5ccnc(N6CCC(OC)CC6)n5)ncc34)CC2)cc1)N(C)C(=O)/C(C#N)=C/c1nccs1 (stereo not shown) [Example A67, (E)-N-(3-(4-(3-(3-(4-(1-(2-cyano-N-methyl-3-(thiazol-2-yl)acrylamido)butyl)phenyl)propanamido)propyl)piperazin-1-yl)propyl)-1-isopropyl-6-((2-(4-methoxypiperidin-1-yl)pyrimidin-4-yl)amino)-1H-pyrazolo[4,3-c]pyridine-3-carboxamide]
- residual EGFR (L858R) abundance: less than 50%
